Measurements as given in patent US5707977A, “Watersoluble azole antifungals” (Janssen Pharmaceutica, N.V., priority 1996, dated 1998).
Values after ≈ are worked out from the molar mass of the structure shown. Counter-ions that a name gives are not always drawn. Each block holds one compound with its values, some of them ahead of it.

Columns and labels:
[1] = Solubility in water and in 0.1N HCl (1 hour shaking at room temperature, UV-spectroscopy); format: physicochemical
Experimental: An excess of compound was added to 5 ml of solvent (the type of solvent is specified in the table). The mixture was shaken during 1 hour at room temperature. The precipitate was filtered off. The concentration of the compound was measured via UV-spectroscopy and is shown in the column "Solubility".

[2] = tested on: Candida albicans; test: Mouse triple mycosis model: vaginal candidosis; format: in vivo; parameters: unit not given here; settings: treatment for 5 days, mice
Experimental: (§1) The test compounds were evaluated for their activity in a mouse model of fungal infection in which three mycoses--vaginal candidosis, cutaneous trichophytosis and disseminated aspergillosis--were established simultaneously. The mice, in groups of 10, were pretreated with subcutaneous injections of oestradiol valerate (500 μg) then inoculated on day 0 with the following: 100 000 colony forming units (CFU)/g of Aspergillus fumigatus B 19119 intravenously, a suspension containing 10^8 Candida albicans cells intravaginally and a aqueous suspension of Trichophyton quinckeanum on lightly scarified dorsal skin. Treatment with the test compounds (orally or intravenously) was begun on the day of infection and continued for 5 days.

[3] = tested on: Trichophyton quinckeanum; test: Mouse triple mycosis model: cutaneous dermatophytosis (trichophytosis); format: in vivo; parameters: unit not given here; settings: treatment for 5 days, mice
Experimental: as §1

[4] = tested on: Candida albicans; test: Mouse disseminated Candida model; format: in vivo; settings: IV route; treatment repeated daily for 9 days; mice
Experimental: Mice in groups of 10 were infected intravenously with 8×10^5 CFU of Candida albicans. Treatment was begun on the day of infection and repeated daily for 9 days. Candida albicans CFU/g kidney were measured for all mice that died spontaneously or were killed on day 10.
The table indicates the lowest concentrations of the shown compounds that achieved a reduction in mean Candida counts of 1 log (i.e. a 10-fold reduction) or more, either in the triple mycosis model or the disseminated Candida infection; also the lowest concentrations that reduced mean skin scores below 1.0 in the cutaneous dermatophytosis component of this model (NT=nor tested, IV=intravenous).

[5] = water, solvent: water, measured pH 6.65 to 7.01
[6] = 0.1n hcl, solvent: 0.1N HCl, measured pH 1.25 to 1.75

SMILES: CC(C)(C)C(Cn1ncn(-c2ccc(N3CCN(c4ccc(OC[C@H]5CO[C@](Cn6cncn6)(c6ccc(F)cc6F)O5)cc4)CC3)cc2)c1=O)OP(=O)(O)Oc1ccccc1 (mixture of isomers) [Compound 2, (±)-cis-1-[[4-[4-[4-[4-[[2-(2,4-difluorophenyl)-2-(1H-1,2,4-triazol-1-ylmethyl)-1,3-dioxolan-4-yl]methoxy]phenyl]-1-piperazinyl]phenyl]-4,5-dihydro-5-oxo-1H-1,2,4-triazol-1-yl]methyl]-2,2-dimethylpropyl phenyl sodium phosphate]
solubility at 1 h ([1]; solvent: water, measured pH 6.65 to 7.01): > 6000 µg/mL

SMILES: CC(C)(C)C(Cn1ncn(-c2ccc(N3CCN(c4ccc(OC[C@H]5CO[C@](Cn6cncn6)(c6ccc(F)cc6F)O5)cc4)CC3)cc2)c1=O)OP(=O)(O)O (mixture of isomers) [Compound 3, (±)-ammonium cis-1-[[4-[4-[4-[4-[[2-(2,4-difluorophenyl)-2-(1H-1,2,4-triazol-1-ylmethyl)-1,3-dioxolan-4-yl]methoxy]phenyl]-1-piperazinyl]phenyl]-4,5-dihydro-5-oxo-1H-1,2,4-triazol-1-yl]methyl]-2,2-dimethylpropyl phosphate]
solubility at 1 h [1, 5]: 31900 µg/mL
lowest concentration, Vaginal Candida CFU reduced by 1 log or more ([2]; IV route): 2.5
lowest concentration, Vaginal Candida CFU reduced by 1 log or more ([2]; oral route): 2.5
lowest concentration, Dermatophyte skin score reduced to ≤1 ([3]; IV route): 2.5
lowest concentration, Dermatophyte skin score reduced to ≤1 ([3]; oral route): 2.5
lowest concentration, Kidney Candida CFU reduced by 1 log or more [4]: 10

SMILES: CC(C)(C)C(Cn1ncn(-c2ccc(N3CCN(c4ccc(OC[C@H]5CO[C@](Cn6cncn6)(c6ccc(Cl)cc6)O5)cc4)CC3)cc2)c1=O)OP(=O)(O)O (mixture of isomers) [Compound 7, (±)-ammonium cis-1-[[4-[4-[4-[4-[[2-(4-chlorophenyl)-2-(1H-1,2,4-triazol-1-yl-methyl)-1,3-dioxolan-4-yl]methoxy]phenyl]-1-piperazinyl]phenyl]-4,5-dihydro-5-oxo-1H-1,2,4-triazol-1-yl]methyl]-2,2-dimethylpropyl phosphate(ester) monohydrate]
solubility at 1 h [1, 5]: 350 µg/mL

SMILES: CC(C)(C)C(Cn1ncn(-c2ccc(N3CCN(c4ccc(OC[C@H]5CO[C@](Cn6cncn6)(c6ccc(F)cc6)O5)cc4)CC3)cc2)c1=O)OP(=O)(O)O (mixture of isomers) [Compound 9, (±)-ammonium cis-1-[[4-[4-[4-[4-[[2-(4-fluorophenyl)-2-(1H-1,2,4-triazol-1-ylmethyl)-1,3-dioxolan-4-yl]methoxy]phenyl]-1-piperazinyl]phenyl]-4,5-dihydro-5-oxo-1H-1,2,4-triazol-1-yl]methyl]-2,2-dimethylpropyl phosphate]
solubility at 1 h [1, 5]: 2650 µg/mL

SMILES: CC(C)(C)C(Cn1ncn(-c2ccc(N3CCN(c4ccc(OC[C@H]5CO[C@](Cn6cncn6)(c6ccc(F)cc6F)O5)cc4)CC3)cc2)c1=O)OP(=O)(O)O (mixture of isomers) [Compound 17, (±)-cis-4-[4-[4-[4-[[2-(2,4-difluorophenyl)-2-(1H-1,2,4-triazol-1-ylmethyl)-1,3-dioxolan-4-yl]methoxy]phenyl]-1-piperazinyl]phenyl]-2-[3,3-dimethyl-2-(phosphonooxy)butyl]-2,4-dihydro-3H-1,2,4-triazol-3-one hemihydrate]
lowest concentration, Vaginal Candida CFU reduced by 1 log or more ([2]; IV route, hemihydrate): < 2.5
lowest concentration, Dermatophyte skin score reduced to ≤1 ([3]; IV route, hemihydrate): < 2.5

SMILES: CN1CCN(CC(=O)OC(Cn2ncn(-c3ccc(N4CCN(c5ccc(OC[C@H]6CO[C@](Cn7cncn7)(c7ccc(F)cc7F)O6)cc5)CC4)cc3)c2=O)C(C)(C)C)CC1 (stereo partly drawn) [Compound 29]
solubility at 1 h [1, 6]: 4890 µg/mL (≈ 5.71 mM)

SMILES: CCN(CC)CC(=O)OC(Cn1ncn(-c2ccc(N3CCN(c4ccc(OC[C@H]5CO[C@](Cn6cncn6)(c6ccc(F)cc6F)O5)cc4)CC3)cc2)c1=O)C(C)(C)C (stereo partly drawn) [Compound 30]
solubility at 1 h [1, 6]: 5220 µg/mL (≈ 6.29 mM)

Further lines, with some results ahead:

solubility at 1 h [1, 6]: > 6000 µg/mL
SMILES: CC(C)(C)C(Cn1ncn(-c2ccc(N3CCN(c4ccc(OC[C@H]5CO[C@](Cn6cncn6)(c6ccc(F)cc6F)O5)cc4)CC3)cc2)c1=O)OC(=O)CCN (mixture of isomers) [Compound 36, (±)-cis-1-[[4-[4-[4-[4-[[2-(2,4-difluorophenyl)-2-(1H-1,2,4-triazol-1-ylmethyl)-1,3-dioxolan-4-yl]methoxy]phenyl]-1-piperazinyl]phenyl]-4,5-dihydro-5-oxo-1H-1,2,4-triazol-1-yl]methyl]-2,2-dimethylpropyl β-alanine monohydrochloride]

solubility at 1 h [1, 6]: > 6000 µg/mL
SMILES: CC(C)(C)C(Cn1ncn(-c2ccc(N3CCN(c4ccc(OC[C@H]5CO[C@](Cn6cncn6)(c6ccc(F)cc6F)O5)cc4)CC3)cc2)c1=O)OC(=O)CCN1CCCC1 (mixture of isomers) [Compound 37, (±)-cis-1-[[4-[4-[4-[4-[[2-(2,4-difluorophenyl)-2-(1H-1,2,4-triazol-1-ylmethyl)-1,3-dioxolan-4-yl]methoxy]phenyl]-1-piperazinyl]phenyl]-4,5-dihydro-5-oxo-1H-1,2,4-triazol-1-yl]methyl]-2,2-dimethylpropyl 1-pyrrolidinepropanoate . monohydrochloride . monohydrate]

Solubility ([1]; solvent: 0.1N HCl, measured pH 1.25 to 1.75, monohydrochloride, 60 min): > 6000 µg/mL
SMILES: CN1CCN(CC(=O)OC(Cn2ncn(-c3ccc(N4CCN(c5ccc(OC[C@H]6CO[C@](Cn7cncn7)(c7ccc(F)cc7F)O6)cc5)CC4)cc3)c2=O)C(C)(C)C)CC1 (mixture of isomers) [Compound 34, (±)-cis-1-[[4-[4-[4-[4-[[2-(2,4-difluorophenyl)-2-(1H-1,2,4-triazol-1-ylmethyl)-1,3-dioxolan-4-yl]methoxy]phenyl]-1-piperazinyl]phenyl]-4,5-dihydro-5-oxo-1H-1,2,4-triazol-1-yl]methyl]-2,2-dimethylpropyl 4-methyl-1-piperazineacetate monohydrochloride]
lowest concentration, Vaginal Candida CFU reduced by 1 log or more ([2]; IV route): 2.5
lowest concentration, Vaginal Candida CFU reduced by 1 log or more ([2]; oral route): 2.5
lowest concentration, Dermatophyte skin score reduced to ≤1 ([3]; IV route): 2.5
lowest concentration, Dermatophyte skin score reduced to ≤1 ([3]; oral route): 2.5
lowest concentration, Kidney Candida CFU reduced by 1 log or more [4]: 5

solubility at 1 h [1, 6]: > 6000 µg/mL
SMILES: CC(C)(C)C(Cn1ncn(-c2ccc(N3CCN(c4ccc(OC[C@H]5CO[C@](Cn6cncn6)(c6ccc(F)cc6F)O5)cc4)CC3)cc2)c1=O)OC(=O)CN1CCN(CCO)CC1 (stereo partly drawn) [Compound 31]

solubility at 1 h [1, 6]: > 6000 µg/mL
SMILES: CN1CCN(CCC(=O)OC(Cn2ncn(-c3ccc(N4CCN(c5ccc(OC[C@H]6CO[C@](Cn7cncn7)(c7ccc(F)cc7F)O6)cc5)CC4)cc3)c2=O)C(C)(C)C)CC1 (stereo partly drawn) [Compound 33]

solubility at 1 h [1, 6]: > 6000 µg/mL
SMILES: CC(C)(C)C(Cn1ncn(-c2ccc(N3CCN(c4ccc(OC[C@H]5CO[C@](Cn6cncn6)(c6ccc(F)cc6F)O5)cc4)CC3)cc2)c1=O)OC(=O)CN (stereo partly drawn) [Compound 38]
